Results as given in patent US8609695B2, “Methods of treating and/or suppressing insulin resistance” (Endorecherche, Inc., priority 1999, dated 2013).
Blank lines part the entries; values can stand above or below the molecule they belong to.

Columns and labels:
[1] = tested on: ovariectomized female rats; experiment: Uterine weight, fat and lipid, 20-day treatment (Example 13); format: in vivo, Rattus norvegicus; conditions: 20 days
Description: The objective of this study was to compare the effect on uterine, weight, fat and blood lipids following treatment with EM-652.HCl, ERA-923 and lasofoxifene, administered alone or in combination with EM-652.HCl, to ovariectomized female rats. For this purpose, each compound was administered orally for 20 days to ovariectomized female rats and at the end of the treatment period, the uterus and fat were collected and weighed.
d) Diet: • Certified Rodent feed (Lab Diet #5002, pellets) and tap water were provided ad libitum. Randomization:
Seventy rats were separated into 7 groups of 9 to 11 animals for conduct of the study outlined below:
Animals from groups 2 to 9 were ovariectomized under Isoflurane-induced anesthesia on Day 7 of the study.
The vehicle or tested compounds were given as suspension in 0.4% methylcellulose by oral gavage (0.5 ml/gavage/rat) from Day 2 to Day 21 of the study.
Rats were weighed on Study Day 1 and at the necropsy (SD 22).
Approximately 24 hours after the last dosing, overnight fasted rats under Isoflurane-induced anesthesia were killed by exsanguination at the abdominal aorta.
Uteri and retroperitonal adipose tissue were removed and weighed.

[2] = tested on: human breast cancer MCF-7 cells; experiment: Proliferation of MCF-7 cell line, DNA content (Example 12); format: cell-based; conditions: MCF-7 cells
Source text: MCF-7 human breast cancer cells were obtained from the American Type Culture Collection # HTB 22 at passage 147 and routinely grown in phenol red-free Dulbecco's Modified Eagle's-Ham's F12 medium, the supplements mentioned above and 5% FBS. The MCF-7 human breast adenocarcinoma cell line was derived from the pleural effusion of a patient. MCF-7 cells were used between passages 148 and 165 and subcultured weekly.
Cells in their late logarithmic growth phase were harvested with 0.1% pancreatin (Sigma) and resuspended in the appropriate medium containing 50 ng bovine insulin/ml and 5% (v/v) FBS treated twice with dextran-coated charcoal to remove endogenous steroids. Cells were plated in 24-well Falcon plastic culture plates (2 cm2/well) at the indicated density and allowed to adhere to the surface of the plates for 72 h. […] Control cells received only the ethanolic vehicle (0.1% EtOH,v/v). Cells were incubated for the specified time intervals with medium changes at 2- or 3-day intervals. Cell number was determined by measurement of DNA content.
Dose-response curves as well IC50 values were calculated using a weighted iterative nonlinear least-squares regression. All results are expressed as means±SEM.

[3] = tested on: ovariectomized female rats; experiment: SERM comparison, energy balance and lipid-lipoprotein metabolism (Example 10); format: in vivo, Rattus norvegicus; conditions: OVX rats, 20 days
Description: For this purpose, tested compounds were administered by oral gavage for 20 days (0.5 mg/rat for each compound; 0.5 ml/rat) in 0.4% methylcellulose to ovariectomized female rats.
d) Diet: • During acclimation period, rats received a certified rodent diet (Lab Diet #5002, pellet) and tap water ad libitum while during study period, they received a high carbonhydrate diet (diet #3) and tap water ad libitum. The diet was composed of (g/100 g): Corn starch, 31.2; Dextrose, 31.2; Casein, 20.0; corn oil, 6.4; dl-Methionine, 0.3; Vitamine mix, 1.0; AIN-76 mineral mix, 4.9; fiber, 5.0. Rats were fasted (with access to water only) around 07 h00 the morning of their necropsy Randomization:
Test group: Seventy-seven rats were assigned to 8 groups of 9-10 rats for conduct of the study outlined below.
On day 0 of the study, rats from group 2 to 8 were ovariectomized (by bilateral flank incision) under Isoflurane anesthesia. Rats from group 1 were sham-operated.
Rats were weighed on day 0 (surgery) and then, every 2 days during study period as well as on the day of necropsy.
Food consumption was evaluated every 2 days.
In order to determine the effect of treatments on fat percentage, body composition was measured on Day 17 of the study using dual energy x-ray absorptiometry (DEXA; QDR 4500A, Hologic, Waltham, Mass.).
On day 21 of the study, approximately 24 hours after the last dosing and 6 hours of fasting, animals under Ketamine-Xylazine anesthesia were killed by exsanguination at the abdominal aorta.
Blood lipids (Total cholesterol and Triglycerides) and glucose were measured on frozen serum samples using the Boehringer Mannheim Diagnostic Hitachi 911 Analyzer (Boehringer Mannheim Diagnostic Laboratory Systems). Circulating hormones and substrates (Insulin and leptin) were measured on serum sample using the following kits: • Insulin: Linco RIA kit • Leptin: Linco RIA kit Organs and Tissues Collected
The following tissues were collected and weighed: • Muscle (right soleus and right VLM), fat (right retroperitoneal and right inguinal), and brown adipose tissue.
A piece of ˜0.1 g of all tissues (except uterus and vagina) were frozen in liquid nitrogen and kept at −80 C for later determination of lipoprotein-lipase (LPL) activity.

intact female rats = experiment: 6-month treatment, fat accumulation in intact female rats receiving or not LHRH-A (Example 5); format: in vivo, Rattus norvegicus; conditions: 6-month LHRH-A treatment
Description: The objective of this study is to determine the effect on fat of treatment with EM-652.HCl and dehydroepiandrosterone (DHEA) in intact female rats receiving or not a luteinizing hormone releasing hormone agonist (LHRH-A, LHRH ethylamide diacetate). For this purpose, intact female rats, treated or not with LHRH-A (2 μg/rat), received daily administration of EM-652.HCl (2.5 mg/kg) and DHEA (100 mg/kg), alone or in combination, for 6 months. EM-652.HCl was administered orally, DHEA was applied topically while LHRH-A was injected subcutaneously. All treatments were administered once daily.
One hundred twenty rats were separated into 8 groups of 15 animals for conduct of the study outlined below:
The LHRH-A is available in solution at a concentration of 1.0 mg/ml. We diluted this concentrated solution (in order to obtain a final concentration of 0.004 mg/ml) by using the following vehicle: 0.3% Sodium Chloride and 0.25% Sodium Phosphate monobasic, monohydrate in water. The sodium hydroxide (aqueous) was used to adjust the pH between 5.6-6.2.
Dosing suspensions/solutions were prepared every two weeks according to the most recent body weight (group mean) except for the LHRH-A solution. For EM-652.HCl administered orally, the vehicle (0.4% methylcellulose) was added to the tested compound, previously weighed into a glass bottle, at least 48 hours prior to the first dosing day. To ensure the homogeneity of dosing suspension, it was stirred at least 48 hours at 2 to 8 C. Dosing suspension was kept at 2 to 8 C. For DHEA solution applied topically, the ethanol was added to DHEA and the mix were agitated until dissolution of DHEA. Then, the polypropylene glycol was added and the solution agitated until homogeneity. Dosing solution was kept at 2 to 8 C. For LHRH-A solution injected subcutaneously, a dilution of the concentrated solution using the appropriate vehicle was prepared every month. Dosing solution was kept at 2 to 8 C.
The administration of tested compounds or vehicle was given from on Study Day 1 of the protocol. The tested compounds were given as suspension in 0.4% methylcellulose by oral gavage (0.5 ml/gavage/rat) once daily or were applied topically in 50% ethanol-50% propylene glycol (0.5 ml/application/rat) once daily. Rats from groups 5 to 8 received also the LHRH-A once daily by subcutaneous injection (0.5 ml/injection/rat). Rats not receiving a tested compound orally and/or topically received the appropriate vehicle alone.
Body composition was measured on whole skeleton of animal under Isoflurane-induced anesthesia using dual energy x-ray absorptiometry (DEXA; QDR 4500A, Hologic) during the acclimation period and after 6 months of treatment.

[4] = OVX rats, commercial rodent diet, 0.5 mg oral, EM-652.HCl 2.5 mg in combinations
[5] = high carbohydrate diet, 0.5 mg/rat oral gavage

effect on uterine weight compared to the OVX control animals [1]: no effect
Uterine Weight [1, 4]: 162.6 ± 5.2 mg
EC50 ([2]; Homo sapiens, MCF7, text summary of table 12, read-out: EC50 of inhibition (antiestrogen activity)): 3.7 nM
Molecule: Cc1c(-c2ccc(O)cc2)n(Cc2ccc(OCCN3CCCCC3)cc2)c2ccc(O)cc12 [ERA-923]
OVX-induced increase in total serum cholesterol levels ([1]; 0.5 mg): completely prevented
prevention of body weight increase induced by ovariectomy ([1]; OVX rats, 0.5 mg): 59%
Cholesterol [1, 4]: 1.20 ± 0.10 mmol/L
Final Body Weight [1, 4]: 248 ± 5 g
Stimulation of DNA by tested compounds % of 1 nM E2 stimulation ([2]; absence of E2): N.S.
Serum insulin (in words) ([3]; 0.5 mg/rat): decreased
Brown adipose tissue Lipoprotein lipase activity [3, 5]: 1017 ± 83 μU/g protein
Brown adipose tissue weight [3, 5]: 0.350 ± 0.019 g
Cumulative food intake [3, 5]: 347 ± 9 g
Serum glucose [3, 5]: 16.5 ± 2.7 mmol/L
Serum insulin [3, 5]: 0.113 ± 0.029 nmol/L
Serum leptin [3, 5]: 2.12 ± 0.44 ng/mL
Serum total cholesterol [3, 5]: 1.66 ± 0.16 mmol/L
Serum triglycerides [3, 5]: 0.93 ± 0.24 mmol/L
Soleus muscle Lipoprotein lipase activity [3, 5]: 11.7 ± 1.9 μU/g protein
Soleus muscle weight [3, 5]: 0.100 ± 0.004 g
Total weight [3, 5]: 260 ± 5 g
VastusLateralis muscle weight [3, 5]: 0.993 ± 0.33 g
White adipose tissue inguinal Lipoprotein lipase activity [3, 5]: 766 ± 173 μU/g protein
White adipose tissue inguinal weight [3, 5]: 0.326 ± 0.042 g
White adipose tissue retroperitoneal Lipoprotein lipase activity [3, 5]: 1750 ± 140 μU/g protein
White adipose tissue retroperitoneal weight [3, 5]: 1.27 ± 0.15 g

Molecule: LHRH ethylamide diacetate [LHRH-A]
increase of the percentage of body fat (intact female rats): 58%
